Assay: Henry solubility constant Hcp at 298.15 K (mol/(m3 Pa))
Details: reference: Sanemasa et al. (1982)

SMILES	Henry solubility constant Hcp
Cc1cccc(C)c1C [1,2,3-trimethylbenzene]	0.0024
Cc1ccc(C)c(C)c1 [1,2,4-trimethylbenzene]	0.0016
Cc1ccccc1C [1,2-dimethylbenzene]	0.0019
Cc1cc(C)cc(C)c1 [1,3,5-trimethylbenzene]	0.0011
Cc1cccc(C)c1 [1,3-dimethylbenzene]	0.0014
Cc1ccc(C)cc1 [1,4-dimethylbenzene]	0.0013
CC(C)c1ccccc1 [(2-propyl)-benzene]	0.00089
c1ccccc1 [benzene]	0.0017
CCc1ccccc1 [ethylbenzene]	0.0013
Cc1ccccc1 [methylbenzene]	0.0015
CCCc1ccccc1 [propylbenzene]	0.00095

— Sander's compilation of Henry's law constants (doi:10.1246/bcsj.55.1054)
